Assays:
[1] = system: Ova-specific OT-II TcR transgenic T cells; assay: Antigen-specific OT-II T cell proliferation after sublingual administration (cell-tracker dye, flow cytometry); type: in vivo, mice; details: GLA 0.2 μg, OVa323-339 peptide 10 μg, four days later (FIGS. 4A, 4C, 4E)
Experimental: Ova-specific OT-II TcR transgenic T cells were labeled with cell-tracker violet dye and adoptively transferred into syngeneic wild type mice. Mice then received sublingual administration of GLA (0.2 μg) alone (FIGS. 4A and 4B), OVa323-339 peptide (10 μg) alone (FIGS. 4C and 4D), or GLA co-administered with Ova peptide (FIGS. 4E and 4F). Four days later, the draining cervical lymph nodes (FIGS. 4A, 4C, and 4E) and spleen (FIGS. 4B, 4D, and 4F) were removed and OT-II T cell proliferation (via the decrease in cell-tracker dye fluorescence) was measured by flow cytometry.
Methods. Sublingual administration was performed as described above in Example 1.
Formulations of Ova peptide and/or GLA included methylcellulose as described in Example 1. Mixtures of methylcellulose+Ova peptide, and methylcellulose+Ova peptide+GLA were prepared the day before dosing.
Ova-specific OT-II TcR transgenic T cells were labeled with cell-tracker violet dye and adoptively transferred into syngeneic wild type mice. Mice then received sublingual administration of GLA (0.2 μg, 0.02 μg or 0.002 μg) co-administered with OVa323-339 peptide or peptide without GLA (0 mg). Four days later, cervical lymph nodes were removed and OT-II T cell proliferation (via the decrease in cell-tracker dye fluorescence) was measured by flow cytometry.

IL-6 = system: IL-6
Experimental: GLA was formulated in DPPC (1,2-dipalmitoyl-sn-glycero-3-phosphocholine) as GLA:DPPC 1:2 (M:M) in Millipore (sterile) water. Animals were sedated with ketamine (5 mg/kg to 10 mg/kg)/dexmedetomidine (0.01 mg/kg to 0.016 mg/kg), IM (intramuscularly), while in their cage. Once sedated, they were brought into the laboratory and placed onto a circulating water heating pad (Gaymar). Sublingual (right side) and left cheek pouch mucosal brushings were taken 15 minutes prior to dosing using Copan FLOQSwabs™ and placed into RLT buffer (QIAmp Minikit Plus, Qiagen), vortexed and immediately frozen on dry ice. Sublingual dosing of GLA (100 μl dosed via syringe) was performed under the right side of the animals tongue and allowed to absorb into the mucosa for three minutes. Further sublingual and cheek brushings were obtained at 6 hr, 24 hr and 48 hr post dosing.
RNA processing was performed from the cheek and sublingual swabs using a QIAmp Minikit Plus (Qiagen) which includes a gDNA (genomic DNA) eliminator column. Gene expression was quantified using the Comparative CT Method, which calculates the relative gene expression quantitation between a target gene and an endogenous control. All target genes were quantitated relative to the expression of the housekeeping gene ARL1. Using the relative expression, the fold of baseline expression was calculated as [(Relative gene expression at time point of interest)/(Baseline relative gene expression)].

[2] = six hours after sublingual administration

Compound | antigen-specific T cell proliferation in the draining cervical lymph nodes [1] | IL-6 expression 24 hours after sublingual administration (IL-6; 24 hours after sublingual administration) | duration of local action within the oral cavity (IL-6; current formulation GLA:DPPC 1:2, sublingual) | IL-6 in brushings from the cheek (IL-6; [2]) | IL-6 in the blood (IL-6; [2]) | IL-6 expression in sublingual mucosal brushings (IL-6; six hours after sublingual administration, 3 different doses of GLA)
CCCCCCCCCCCCCC(=O)O[C@H](CCCCCCCCCCC)CC(=O)O[C@@H]1[C@@H](NC(=O)C[C@H](CCCCCCCCCCC)OC(=O)CCCCCCCCCCCCC)[C@H](OC[C@H]2O[C@H](O)[C@H](NC(=O)C[C@H](O)CCCCCCCCCCC)[C@@H](OC(=O)C[C@H](O)CCCCCCCCCCC)[C@@H]2O)O[C@H](CO)[C@H]1OP(=O)(O)O [GLA, Glucopyranosyl Lipid A] | not | not detected | ≤ 1 days | not detected | not detected | dose-dependent expression of IL-6
OVa323-339 peptide: Ova peptide antigen recognised by OT-II TcR transgenic T cells (KISQAVHAAHAEINEAG; UniProt P01012 323-339, looked up, fragment) | not |  |  |  |  | 
